Results reported in article PMC10638401, “Mannich-type modifications of (−)-cannabidiol and (−)-cannabigerol leading to new, bioactive derivatives” (Scientific Reports, 2023).
Converted amounts (≈) assume the structure as drawn.

How the values were obtained:
SZ95 sebocytes [1] = experiment: Nile Red-assay, spontaneous sebaceous lipogenesis; type: cell-based, human; conditions: 48 h
SZ95 sebocytes [2] = experiment: Nile Red-assay, arachidonic acid-induced lipogenesis; type: cell-based, human; conditions: 50 μM arachidonic acid, 48 h
Procedure: Human immortalized SZ95 sebocytes, originated from human facial sebaceous glands[50] were provided by prof. Christos C. Zouboulis, and were cultured in Sebomed® Basal Medium (Cat. No. F8205; Sigma-Aldrich) supplemented with 10% FBS (Gibco-Thermo Fisher Scientific), 1 mM CaCl2 (Cat. No. C7902; Sigma-Aldrich), 5 ng/ml human epidermal growth factor (Cat. No. E9644; Sigma-Aldrich), and MycoZap™ Plus-CL (1:500; Lonza). The medium was changed every other day, and cells were subcultured at 60–70% confluence.
For quantitative measurement of sebaceous (neutral) lipid content, SZ95 sebocytes (20,000 cells/well) were cultured in 96-well “black well/clear bottom” plates (Cat. No. 655090; Greiner Bio-One, Frickenhausen, Germany), and were treated with compounds in the presence or absence of arachidonic acid (AA; Cat. No. 90010; Cayman Chemical Company, Ann Arbor, MI, USA) or its vehicle (absolute ethanol) as indicated. Subsequently, supernatants were discarded, cells were washed twice with phosphate-buffered saline (PBS; 115 mM NaCl, 20 mM Na2HPO4, pH 7.4; all from Sigma-Aldrich), and 100 µl of a 1 µg/ml Nile Red (Cat. No. N3013; Sigma-Aldrich) solution in PBS was added to each well. The plates were then incubated at 37 °C for 30 min, and fluorescence was measured on FlexStation 3 multimode microplate reader (Molecular Devices, San Francisco, CA, USA). Results, measured in relative fluorescence units, are expressed as percentage of the vehicle (absolute ethanol; Cat. No. 20821.296; VWR International)-treated control regarded as 100%, using 485 nm excitation and 565 nm emission wavelengths.

in vitro = conditions: African green monkey
Bacillus subtilis = experiment: MIC, broth micro dilution
[3] = tested on: MSSA (Methicillin Sensitive Staphylococcus aureus); experiment: MIC, broth micro dilution; conditions: Staphylococcus aureus
[4] = tested on: MRSA (Methicillin Resistant Staphylococcus aureus); experiment: MIC, broth micro dilution; conditions: Staphylococcus aureus
Procedure: (§1) According to CLSI guideline the Minimal Inhibitory Concentrations (MICs) of the prepared compounds were determined with the broth micro dilution method. After an overnight growth on 5% bovine blood agar plates at 35 °C bacterial strains were suspended in physiological saline in order to reach the density of 0.5 McFarland for inoculation. Stock solutions containing different concentrations of the substances were prepared in DMSO and H2O (1:1). These were twofold serially diluted from 256 to 0.5 mg/l in Mueller–Hinton broth, and 100 ml of each dilution was inoculated with 10 ml of each bacterial suspension.

[5] = tested on: Enterococcus faecalis 51299 VanB; experiment: MIC, broth micro dilution; conditions: Enterococcus faecalis, 51299VANB
Escherichia coli = experiment: Antibacterial effect, broth micro dilution; type: cell-based
Pseudomonas aeruginosa = experiment: Antibacterial effect, broth micro dilution; type: cell-based
[6] = tested on: multidrug-resistant Acinetobacter baumannii; experiment: Antibacterial effect, broth micro dilution
Procedure: as §1

[7] = tested on: Klebsiella pneumoniae carbapenemase-producing bacteria; experiment: Antibacterial effect, broth micro dilution
Procedure: as §1

With C=C(C)[C@@H]1CCC(C)=C[C@H]1c1c(O)cc(CCCCC)c(COCC)c1O [Compound 9] the “spontaneous, homeostatic sebaceous lipogenesis” value (SZ95 sebocytes [1]; applied alone) was “rather promote spontaneous, homeostatic sebaceous lipogenesis”, the “effect on the lipogenic effect of arachidonic acid (AA)” value (SZ95 sebocytes [2]) was “mimic this lipostatic effect” and the CC50 (in vitro) was greater than 100 µM. The MIC (Bacillus subtilis) was greater than 256 µg/mL, the MIC [3] was greater than 256 µg/mL and the MIC [4] was greater than 256 µg/mL. It also gave an MIC [5] of 8 µg/mL (≈ 21.5 µM).

In the case of C=C(C)[C@@H]1CCC(C)=C[C@H]1c1c(O)cc(CCCCC)cc1O [Compound 1, (−)-Cannabidiol], the “spontaneous, homeostatic sebaceous lipogenesis (lipid synthesis)” value (SZ95 sebocytes [1]; 30 μM) is reported as “significant decrease in the lipid synthesis”, the “spontaneous, homeostatic sebaceous lipogenesis” value (SZ95 sebocytes [1]; ≤ 10 μM) is reported as “no effect” and the “effect on the lipogenic effect of arachidonic acid (AA)” value (SZ95 sebocytes [2]) is reported as “completely prevent the lipogenic effect”. The “antibacterial effect (no effect up to)” value (Escherichia coli) was greater than 256 µg/mL, the “antibacterial effect (no effect up to)” value (Pseudomonas aeruginosa) was greater than 256 µg/mL and the CC50 (in vitro) was 12.1 ± 1.2 µM. It also gave an MIC (Bacillus subtilis) of 4 µg/mL (≈ 12.7 µM), an MIC [3] of 4 µg/mL (≈ 12.7 µM) and an MIC [4] of 4 µg/mL (≈ 12.7 µM). The MIC [5] was 4 µg/mL (≈ 12.7 µM), the “antibacterial effect (no effect up to)” value [6] was greater than 256 µg/mL and the “antibacterial effect (no effect up to)” value [7] was greater than 256 µg/mL.
